{"source": "ChEMBL document CHEMBL1151859", "about": "“Structure-activity relationship studies of a novel series of anthrax lethal factor inhibitors” (Bioorg Med Chem, 2009)"}
{"target": "T1, Lethal factor (Bacillus anthracis, UniProt P15917)", "T1 sequence (P15917 whole entry)": "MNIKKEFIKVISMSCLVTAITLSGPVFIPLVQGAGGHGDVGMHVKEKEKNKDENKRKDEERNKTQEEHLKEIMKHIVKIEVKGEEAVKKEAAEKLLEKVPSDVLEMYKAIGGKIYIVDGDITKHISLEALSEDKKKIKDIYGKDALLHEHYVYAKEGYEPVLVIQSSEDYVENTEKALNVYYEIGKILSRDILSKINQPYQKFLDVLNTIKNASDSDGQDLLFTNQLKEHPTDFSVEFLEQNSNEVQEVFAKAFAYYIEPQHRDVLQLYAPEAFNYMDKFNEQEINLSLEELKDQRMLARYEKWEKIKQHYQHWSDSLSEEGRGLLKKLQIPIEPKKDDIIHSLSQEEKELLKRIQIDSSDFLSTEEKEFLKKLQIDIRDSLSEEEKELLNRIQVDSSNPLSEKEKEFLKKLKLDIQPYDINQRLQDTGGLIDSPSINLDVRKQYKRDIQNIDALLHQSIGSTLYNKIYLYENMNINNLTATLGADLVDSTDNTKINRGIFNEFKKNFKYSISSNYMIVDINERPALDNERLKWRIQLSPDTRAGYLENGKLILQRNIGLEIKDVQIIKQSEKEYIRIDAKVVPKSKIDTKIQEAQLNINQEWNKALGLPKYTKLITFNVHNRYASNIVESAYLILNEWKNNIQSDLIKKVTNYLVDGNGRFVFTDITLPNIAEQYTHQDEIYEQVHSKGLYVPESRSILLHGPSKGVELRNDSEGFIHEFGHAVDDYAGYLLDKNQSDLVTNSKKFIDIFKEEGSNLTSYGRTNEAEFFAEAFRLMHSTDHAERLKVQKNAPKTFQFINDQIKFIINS", "assay": "Inhibition of Bacillus anthracis lethal factor assessed as cleavage of MAPKK by fluorescence peptide cleavage assay", "units": {"IC50": "µM", "Ki": "µM"}}
{"compound": "Cc1csc(NS(=O)(=O)c2cccc(OC(F)(F)F)c2)c1-c1nc2ccccc2s1", "IC50": 11}
{"compound": "O=S(=O)(Nc1sccc1-c1nc2ccccc2s1)c1ccc2ccccc2c1", "IC50": 8}
{"compound": "Cc1csc(NS(=O)(=O)c2cc(Cl)c(Cl)cc2Cl)c1-c1nc2ccccc2s1", "IC50": 15}
{"compound": "COc1ccc(-c2ccc(S(=O)(=O)Nc3nc4ccccc4s3)cc2)cc1", "IC50": "> 50"}
{"compound": "O=S(=O)(Nc1ccccc1-c1nc2ccccc2s1)c1ccc(-c2ccc(Cl)cc2)cc1", "IC50": 100}
{"compound": "Cc1ccc(S(=O)(=O)Nc2scc(C)c2-c2nc3ccccc3s2)cc1[N+](=O)[O-]", "IC50": 48}
{"compound": "O=S(=O)(Nc1sccc1-c1nc2ccccc2s1)c1ccc(Br)cc1", "IC50": 8}
{"compound": "COc1ccc(S(=O)(=O)Nc2scc(C)c2-c2nc3ccccc3s2)cc1OC", "IC50": 34}
{"compound": "Cc1csc(NS(=O)(=O)c2ccc(F)c(Cl)c2)c1-c1nc2ccccc2s1", "IC50": "> 100"}
{"compound": "CC(=O)Nc1ccc(S(=O)(=O)Nc2scc(C)c2-c2nc3ccccc3s2)cc1", "IC50": 14}
{"compound": "O=S(=O)(Nc1sccc1-c1nc2ccccc2s1)c1ccc(-c2ccno2)s1", "IC50": 19}
{"compound": "COc1ccc(-c2ccc(S(=O)(=O)Nc3scc(C)c3-c3nc4ccccc4s3)cc2)cc1", "IC50": 21}
{"compound": "O=S(=O)(Nc1sccc1-c1nc2ccccc2s1)c1ccc2c(c1)OCCO2", "IC50": 27}
{"compound": "O=S(=O)(Nc1sccc1-c1nc2ccccc2s1)c1ccc(F)cc1", "IC50": 16}
{"compound": "O=S(=O)(Nc1sccc1-c1nc2ccccc2s1)c1ccco1", "IC50": "> 50"}
{"compound": "O=S(=O)(Nc1sccc1-c1nc2ccccc2s1)c1cccc(C(F)(F)F)c1", "IC50": 16}
{"compound": "Cc1csc(NS(=O)(=O)c2ccc(-c3ccccc3)cc2)c1-c1nc2ccccc2s1", "IC50": 17}
{"compound": "CC(=O)Nc1ccc(S(=O)(=O)Nc2sccc2-c2nc3ccccc3s2)cc1", "IC50": 24}
{"compound": "Cc1csc(NS(=O)(=O)c2cccc(-c3ccccc3)c2)c1-c1nc2ccccc2s1", "IC50": 19}
{"compound": "Cc1csc(NS(=O)(=O)c2cccc(C(F)(F)F)c2)c1-c1nc2ccccc2s1", "IC50": 9.4}
{"compound": "Cc1ccc(S(=O)(=O)Nc2sccc2-c2nc3ccccc3s2)cc1", "IC50": 13}
{"compound": "Cc1csc(NS(=O)(=O)c2ccc(Cl)c(Cl)c2)c1-c1nc2ccccc2s1", "IC50": "> 100"}
{"compound": "O=S(=O)(Nc1oncc1-c1nc2ccccc2s1)c1ccc(-c2ccc(Cl)cc2)cc1", "IC50": "> 100"}
{"compound": "O=S(=O)(Nc1sccc1-c1nc2ccccc2s1)c1ccc(-n2cccn2)cc1", "IC50": 8}
{"compound": "Cc1ccc(S(=O)(=O)Nc2sccc2-c2nc3ccccc3s2)cc1[N+](=O)[O-]", "IC50": 10}
{"compound": "Cc1csc(N(S(=O)(=O)c2ccc(OC(F)(F)F)cc2)S(=O)(=O)c2ccc(OC(F)(F)F)cc2)c1-c1nc2ccccc2s1", "IC50": "> 100"}
{"compound": "COc1ccc(-c2ccc(S(=O)(=O)Nc3sccc3-c3nc4ccccc4s3)cc2)cc1OC", "IC50": 9}
{"compound": "COc1ccc(-c2ccc(S(=O)(=O)NCCc3nc4ccccc4s3)cc2)cc1", "IC50": "> 50"}
{"compound": "Cc1csc(NS(=O)(=O)c2ccc(F)cc2)c1-c1nc2ccccc2s1", "IC50": "> 100"}
{"compound": "O=S(=O)(Nc1sccc1-c1nc2ccccc2s1)c1ccc2nonc2c1", "IC50": 30}
{"compound": "Cc1csc(N(S(=O)(=O)c2cccc(C(F)(F)F)c2)S(=O)(=O)c2cccc(C(F)(F)F)c2)c1-c1nc2ccccc2s1", "IC50": "> 100"}
{"compound": "Cc1csc(N)c1-c1nc2ccccc2s1", "IC50": "> 100"}
{"compound": "CC(C)(C)c1ccc(S(=O)(=O)Nc2sccc2-c2nc3ccccc3s2)cc1", "IC50": 13}
{"compound": "Cc1cc(S(=O)(=O)Nc2scc(C)c2-c2nc3ccccc3s2)ccc1F", "IC50": 17}
{"compound": "Cc1csc(NS(=O)(=O)c2ccc(OC(F)(F)F)cc2)c1-c1nc2ccccc2s1", "IC50": 18}
{"compound": "Cc1csc(NS(=O)(=O)c2cccc(Cl)c2F)c1-c1nc2ccccc2s1", "IC50": 100}
{"compound": "Cc1csc(NS(=O)(=O)c2ccc(Cl)cc2)c1-c1nc2ccccc2s1", "IC50": 15, "Ki": 7.8}
{"compound": "O=S(=O)(Nc1sccc1-c1nc2ccccc2s1)c1ccc2cc(Cl)ccc2c1", "IC50": 11}
{"compound": "O=S(=O)(Nc1nc2ccccc2s1)c1ccc(-c2ccc(Cl)cc2)cc1", "IC50": "> 50"}
{"compound": "O=S(=O)(Nc1sccc1-c1nc2ccccc2s1)c1ccc(-c2ccc(Cl)c(Cl)c2)cc1", "IC50": 7.2}
{"compound": "O=S(=O)(Nc1sccc1-c1nc2ccccc2s1)c1ccc(Oc2ccccc2Cl)cc1", "IC50": 9}
{"compound": "CN1CCOc2cc(S(=O)(=O)Nc3sccc3-c3nc4ccccc4s3)ccc21", "IC50": 23}
{"compound": "O=S(=O)(Nc1sccc1-c1nc2ccccc2s1)c1cccc(-c2ccccc2)c1", "IC50": 13}
{"compound": "Cc1csc(NS(=O)(=O)c2cccc(-c3ccc(Cl)cc3)c2)c1-c1nc2ccccc2s1", "IC50": 22}
{"compound": "Cc1ccc(-c2ccc(S(=O)(=O)Nc3sccc3-c3nc4ccccc4s3)cc2)cc1", "IC50": 28}
{"compound": "Cc1csc(NS(=O)(=O)c2ccc3ccccc3c2)c1-c1nc2ccccc2s1", "IC50": 12}
{"compound": "O=S(=O)(Nc1sccc1-c1nc2ccccc2s1)c1ccc(F)c(Cl)c1", "IC50": 13}
{"compound": "O=S(=O)(Nc1sccc1-c1nc2ccccc2s1)c1ccc(Cl)cc1F", "IC50": 18}
{"compound": "Cc1csc(NS(=O)(=O)c2ccc(C(C)(C)C)cc2)c1-c1nc2ccccc2s1", "IC50": "> 100"}
{"compound": "Cc1ccc(S(=O)(=O)Nc2sccc2-c2nc3ccccc3s2)cc1F", "IC50": 11}
{"compound": "COc1ccc(-c2cccc(S(=O)(=O)Nc3sccc3-c3nc4ccccc4s3)c2)cc1", "IC50": 14}
{"compound": "Cc1ccc(S(=O)(=O)Nc2scc(C)c2-c2nc3ccccc3s2)cc1F", "IC50": 35}
{"compound": "COc1ccc(S(=O)(=O)Nc2sccc2-c2nc3ccccc3s2)cc1OC", "IC50": 19}
{"compound": "O=C(NCc1ccc(S(=O)(=O)Nc2sccc2-c2nc3ccccc3s2)s1)c1ccc(Cl)cc1", "IC50": 14}
{"compound": "Cc1nnc(-c2cccc(S(=O)(=O)Nc3sccc3-c3nc4ccccc4s3)c2)o1", "IC50": 25}
{"compound": "Cc1cc(S(=O)(=O)Nc2sccc2-c2nc3ccccc3s2)ccc1F", "IC50": 12}
{"compound": "Cc1csc(NS(=O)(=O)c2ccc(-c3ccc(Cl)cc3)cc2)c1-c1nc2ccccc2s1", "IC50": 12}
{"compound": "CS(=O)(=O)CS(=O)(=O)Nc1sccc1-c1nc2ccccc2s1", "IC50": 19}
{"compound": "Cc1csc(NS(=O)(=O)c2cccc(Cl)c2C)c1-c1nc2ccccc2s1", "IC50": 100}
{"compound": "O=S(=O)(Nc1sccc1-c1nc2ccccc2s1)c1cccc(-c2ccc(Cl)cc2)c1", "IC50": 18}
{"compound": "Cc1csc(NS(=O)(=O)c2cccc(Cl)c2)c1-c1nc2ccccc2s1", "IC50": "> 100"}
{"compound": "O=S(=O)(Nc1sccc1-c1nc2ccccc2s1)c1ccc(OC(F)(F)F)cc1", "IC50": 9.6}
{"compound": "O=S(=O)(Nc1sccc1-c1nc2ccccc2s1)c1ccc(C(F)(F)F)cc1", "IC50": 11}
{"compound": "COc1ccccc1Oc1ccc(S(=O)(=O)Nc2sccc2-c2nc3ccccc3s2)cc1", "IC50": "> 50"}
{"compound": "COc1ccc(S(=O)(=O)Nc2scc(C)c2-c2nc3ccccc3s2)cc1", "IC50": 46}
{"compound": "O=S(=O)(Nc1sccc1-c1nc2ccccc2s1)c1ccc(Cl)cc1", "IC50": 15}
{"compound": "CN1CCOc2cc(S(=O)(=O)Nc3sccc3-c3nc4ccccc4s3)cnc21", "IC50": 27}
{"compound": "Cc1csc(NS(=O)(=O)c2ccc(Cl)cc2F)c1-c1nc2ccccc2s1", "IC50": 19}
{"compound": "Cc1c(S(=O)(=O)Nc2sccc2-c2nc3ccccc3s2)cnn1-c1ccccc1", "IC50": "> 50"}
{"compound": "O=S(=O)(Nc1sccc1-c1nc2ccccc2s1)c1ccccc1", "IC50": 39}
{"compound": "Nc1sccc1-c1nc2ccccc2s1", "IC50": "> 100"}
{"compound": "O=S(=O)(Nc1sccc1-c1nc2ccccc2s1)c1ccc(-c2ccc(OC(F)(F)F)cc2)cc1", "IC50": 3.9}
{"compound": "N#C/C(=C\\c1ccc([N+](=O)[O-])s1)C(=O)c1ccco1", "IC50": 19, "Ki": 6.6}
{"compound": "COc1ccc(-c2ccc(S(=O)(=O)Nc3ccccc3-c3nc4ccccc4s3)cc2)cc1", "IC50": "> 100"}
{"compound": "Cc1ccc(S(=O)(=O)Nc2nc3ccccc3s2)cc1Cl", "IC50": 28}
{"compound": "O=S(=O)(Nc1sccc1-c1nc2ccccc2s1)c1ccc(-c2cncs2)cc1", "IC50": 12}
{"compound": "O=S(=O)(Nc1sccc1-c1nc2ccccc2s1)c1ccc(Br)c(Cl)c1", "IC50": 4.5}
{"compound": "COc1ccc(-c2cccc(S(=O)(=O)Nc3scc(C)c3-c3nc4ccccc4s3)c2)cc1", "IC50": 16}
{"compound": "O=S(=O)(Nc1sccc1-c1nc2ccccc2s1)c1ccc(-c2ccc(C(F)(F)F)cc2)cc1", "IC50": 8}
{"compound": "COc1cccc(S(=O)(=O)Nc2scc(C)c2-c2nc3ccccc3s2)c1", "IC50": 11}
{"compound": "Cc1nccc(-c2cccc(S(=O)(=O)Nc3sccc3-c3nc4ccccc4s3)c2)n1", "IC50": 12}
{"compound": "O=S(=O)(Nc1sccc1-c1nc2ccccc2s1)c1cccc(Cl)c1F", "IC50": 30}
{"compound": "O=S(=O)(Nc1sccc1-c1nc2ccccc2s1)c1ccc(Oc2ccccc2)nc1", "IC50": 43}
{"compound": "Cc1ccc(S(=O)(=O)Nc2scc(C)c2-c2nc3ccccc3s2)cc1", "IC50": "> 100"}
{"compound": "Cc1csc(NS(=O)(=O)c2ccccc2)c1-c1nc2ccccc2s1", "IC50": "> 100"}
{"compound": "O=S(=O)(Nc1sccc1-c1nc2ccccc2s1)c1ccc(Cl)c(C(F)(F)F)c1", "IC50": 10}
{"compound": "Cc1csc(NS(=O)(=O)c2ccc(Cl)c(C(F)(F)F)c2)c1-c1nc2ccccc2s1", "IC50": 11}
{"compound": "Cc1ccc(S(=O)(=O)Nc2scc(C)c2-c2nc3ccccc3s2)cc1Cl", "IC50": 8.9}
{"compound": "COc1ccc(-c2ccc(S(=O)(=O)Nc3oncc3-c3nc4ccccc4s3)cc2)cc1", "IC50": "> 100"}
{"compound": "O=S(=O)(Nc1sccc1-c1nc2ccccc2s1)c1ccccc1C(F)(F)F", "IC50": 9.3}
{"compound": "COc1ccc(S(=O)(=O)Nc2sccc2-c2nc3ccccc3s2)cc1", "IC50": 18}
